Laboratory results: patent US9657073B2, “Inhibitors of Bcl-2” (Case Western Reserve University, priority 2010, dated 2017)
Where no end group is shown, it is not given here.

Tests used:
primary CLL cells [1] = experiment: Apoptosis and cell death assays (trypan blue, propidium iodide, Hoechst nuclear morphology, Annexin V); assay type: cell-based, human
Source text: Lymphocytes were freshly separated from heparinized peripheral blood obtained from normal adult volunteers or adult patients with chronic lymphocytic leukemia (CLL) meeting standard diagnostic guidelines. […] We conformed to all guidelines and regulations in accordance with Internal Review Board protocols ICC2902/11-02-28 (Case Western Reserve University Cancer Center/University Hospitals of Cleveland Ireland Cancer Center). Cells were separated by centrifugation through Ficoll-Hypaque and suspended in RPMI medium supplemented with 10% fetal bovine serum, L-glutamine (2 mM), and nonessential amino acids (100 μM) at a density of 2 million cells/ml. Normal CD19+ B cells were pooled from healthy individuals between 26 and 32 years of age, in accordance with IRB-approval (as above). Mononuclear cells were separated by Ficoll-Hypaque centrifugation, and further isolation of B and T cells was achieved by magnetic separation using CD19 microbeads (Miltenyi Biotec, Bergisch Gladbach, Germany).
Apoptosis was quantified according to apoptotic nuclear morphology and by detection of phosphatidylserine exposure on the plasma membrane. […] Images were obtained using a chargecoupled device camera (Hamamatsu Photonics, Shizuoka, Japan) and digitally converted by Simple PCI software (Hamamatsu Photonics). Membrane translocation of phosphatidylserine was detected by Annexin V staining. Annexin V-positive cells were assessed by flow cytometry using an ARIA flow cytometer (Beckman Coulter, Pasadena, Calif., USA). All flow cytometry data were analyzed using FlowJo 8.8.4 for Macintosh (Treestar, Ashland, Oreg., USA). Dead cells were identified according to their inability to exclude trypan blue dye or propidium iodide. Trypan blue dye uptake into cells was detected by light microscopy using a 40× objective and quantified by counting up to 400 cells. Propidium iodide uptake was quantified by flow cytometry in association with the Annexin V measurement described above.

primary CLL cells [2] = experiment: Single cell digital imaging of intracellular Ca2+ (Fura-2); assay type: cell-based, human
Source text: Lymphocytes were freshly separated from heparinized peripheral blood obtained from normal adult volunteers or adult patients with chronic lymphocytic leukemia (CLL) meeting standard diagnostic guidelines. Patients had either never received treatment or had received treatment over two years prior to obtaining samples. We conformed to all guidelines and regulations in accordance with Internal Review Board protocols ICC2902/11-02-28 (Case Western Reserve University Cancer Center/University Hospitals of Cleveland Ireland Cancer Center). Cells were separated by centrifugation through Ficoll-Hypaque and suspended in RPMI medium supplemented with 10% fetal bovine serum, L-glutamine (2 mM), and nonessential amino acids (100 μM) at a density of 2 million cells/ml. Normal CD19+ B cells were pooled from healthy individuals between 26 and 32 years of age, in accordance with IRB-approval (as above). Mononuclear cells were separated by Ficoll-Hypaque centrifugation, and further isolation of B and T cells was achieved by magnetic separation using CD19 microbeads (Miltenyi Biotec, Bergisch Gladbach, Germany).
(§1) Methods of Ca^2+ imaging, described in detail previously, were employed here with only minor modification. Briefly, cells adhered to poly-L-lysine-coated coverslips (35-mm coverslip dishes, MatTek Corp., Ashland, Mass.) were loaded with 1 μM Fura-2 AM for 45 min at 25° C. in extracellular buffer (ECB) (130 mM NaCl, 5 mM KCl, 1.5 mM CaCl2, 1 mM MgCl2, 25 mM Hepes, pH 7.5, 1 mg/ml BSA, and 5 mM glucose). The buffer was replaced with fresh ECB and the incubation continued for […] at 25° C. to permit de-esterification. Culture dishes were mounted on the non-heated stage of an inverted microscope (Olympus CKX41) equipped with a 20× Fluor objective. Excitation light was alternated between 340 and 380 nm by a filter wheel (Sutter Instrument Co.), with 0.8 sec and 0.2 sec exposure times respectively, and emitted light was filtered at >510 nm and collected with an intensified charge-coupled device camera (Cooke 12 bit VGA). The video signal was digitized using InCyt Im2 software (Intracellular Imaging) and subsequently processed using Microsoft Excel. To determine Rmin cells were perfused with ECB deficient in Ca^2+ and supplemented with 4 mM EGTA and 10 μM ionomycin. Rmax was obtained by perfusing cells with ECB supplemented with 4 mM CaCl2 and 10 μM ionomycin. […] In most experiments peptides were fused with the cell penetrating peptide of HIV TAT to facilitate uptake by cells. In some experiments peptides, without linkage to TAT, were delivered into cells using Chariot reagent (Active Motif) as previously described. Xestospongin C (Enzo Life Sciences International) and U73122 (Sigma), both dissolved in DMSO, were added to cells […] prior to Ca^2+ measurements.

Jurkat cells = experiment: as above; assay type: cell-based, human; details: for effect on percentage of cells displaying peptide-induced Ca2+ oscillations: xestospongin C 10 μM, U73122 0.25 μM, peptide 10 μM, 90 min, FIG. 8A
Method: (§2) WEHI7.2 cells were cultured in DMEM supplemented with 10% fetal calf serum, L-glutamine (2 mM), and nonessential amino acids (100 μM). Transfections of WEHI7.2 cells with expression vectors encoding wild type Bcl-2 and Bcl-2RS/GG were described previously. Jurkat cells and RS11846 cells were cultured in RPMI medium supplemented with 10% fetal bovine serum, L-glutamine (2 mM), and nonessential amino acids (100 μM). Cells were maintained in 5% carbon dioxide at high humidity.
as §1

Bcl-2 = Bcl-2 (Homo sapiens, UniProt P10415); experiment: Biotin-streptavidin pulldown assay; assay type: binding; details: 200 μM biotin-peptide, lysate of WEHI7.2 cells overexpressing wild type Bcl-2
Chain of Bcl-2 (P10415 whole entry, species assumed): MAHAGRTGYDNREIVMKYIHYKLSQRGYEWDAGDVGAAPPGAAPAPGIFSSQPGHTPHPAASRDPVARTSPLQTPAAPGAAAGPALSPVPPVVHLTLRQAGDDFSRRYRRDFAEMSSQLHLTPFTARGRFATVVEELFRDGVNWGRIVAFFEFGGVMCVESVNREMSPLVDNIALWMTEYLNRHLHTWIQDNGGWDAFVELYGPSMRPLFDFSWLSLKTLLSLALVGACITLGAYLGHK
Method: WEHI7.2 cells overexpressing wild type Bcl-2 were washed twice with PBS and incubated on ice for 30 min in 400 ul CHAPS lysis buffer (50 mM Tris-HCL pH 7.5, 100 mM NaCL, 2 mM EDTA, 1% CHAPS, 50 mM NaF, 1 mM Na3VO4, protease inhibitor cocktail, PhosSTOP). Cell lysates were centrifuged for 15 min at 20,000 g at 4 C and the supernatant (protein concentration 5 mg/ml) was continuously rotated with 200 μM biotin-Scr or biotin-IDPDD/AA, or without peptide, at 4 C for 16 hr. Streptavidin Sepharose beads ([…]) (Pierce Pull-Down Biotinylated Protein:Protein Interaction Kit, Thermo, Cat #21115) were washed three times with tris buffered saline (25 mM Tris.HCL, 0.15M NaCl, pH 7) and then added to 400 μl cell lysate, followed by rotation for 2 hours at 4 C. After this, the beads were washed four times with tris buffered saline, centrifuging for 30-60 second each time. The beads were then incubated for 3-5 min at room temperature with 50 μl elution buffer provided with the Pierce pulldown kit (above) and centrifuged at 1,250×g for 30-60 seconds. The supernatant was boiled in SDS-PAGE sample buffer for 5 min and western blotting for Bcl-2 was performed as described above.

[3] = test system: IP3R-mediated Ca2+ release inhibited by BH4-Bcl-2; experiment: Unidirectional 45Ca2+-flux assay in permeabilized MEF cells; assay type: cell-based; details: 40 μM IDPDD/AA, 40 μM BH4-Bcl-2 peptide, 3 μM IP3, FIG. 7
Method: Twelve-well clusters containing MEF cells were fixed on a thermostated plate at 30° C. on a mechanical shaker. The culture medium was aspirated, and the cells were permeabilized by incubating them for 10 min in a solution containing 120 mM KCl, 30 mM imidazole-HCl (pH 6.8), 2 mM MgCl2, 1 mM ATP, 1 mM EGTA and 20 μg/ml saponin. The non-mitochondrial Ca^2+ stores were then loaded for 45 min in 120 mM KCl, 30 mM imidazole-HCl (pH 6.8), 5 mM MgCl2, 5 mM ATP, 0.44 mM EGTA, 10 mM NaN3 and 150 nM free ^45Ca^2+ (28 μCi/ml). Then, 1 ml of efflux medium containing 120 mM KCl, 30 mM imidazole-HCl (pH 6.8) and 1 mM EGTA was added and replaced every 2 min IP3 (3 μM) was added for 2 min after 10 min of efflux. BH4-Bcl2 peptide (40 μM), in the presence or not of IDPDD/AA peptide (40 μM), was added from 4 min before IP3 to 2 min after IP3. At the end of the experiment, all 45Ca^2+ remaining in the stores was released by incubation with 1 ml of a 2% (w/v) sodium dodecyl sulfate solution for 30 min Ca^2+ release was plotted as fractional loss (%/2 min) as a function of time, as previously described.

Bcl-2-IP3R interaction = molecular target: T1, Bcl-2-IP3R interaction (Homo sapiens, UniProt P10415); experiment: Co-immunoprecipitation assay; assay type: binding; details: 200 μM peptide, lysate of WEHI7.2 cells overexpressing wild type Bcl-2
T1 construct: expressed in transfected cells; host or cells: WEHI7.2 (murine T cell lymphoma); IP3R endogenous
T1 sequence (P10415 whole entry): as the sequence (P10415 whole entry, species assumed) above
Method: One hundred million WEHI7.2 cells overexpressing wild type Bcl-2 were washed twice with PBS and then lysed on ice for 30 min in 1 ml CHAPS buffer. The supernatant was prepared by centrifugation for 15 min at 20,000 g at 4° C. The supernatant (1 ml) was mixed with 100 μl 50% protein G in Tris 50 mM pH 7.5 buffer and rotated at 4 C for 2 hrs. After removing the beads, the supernatant was incubated with 200 μM peptide (Scr or IDPDD/AA, or without peptide addition, for 2 hrs at 4° C. Then hamster anti-human Bcl-2 antibody was added (final dilution 1:250) and the supernatant was rotated for 16 hrs at 4 C, followed by rotation in the presence of 50 μl protein G (50% beads) for 2 hours at 4 C. The beads were washed six times with CHAPS buffer and boiled for 5 min in SDS sample buffer followed by resolution of proteins by SDS-PAGE and analysis by western blotting for the IP3R using anti-IP3R antibody (BD Biosciences (Cat #610313) at 1:2,000 dilution and for Bcl-2 as described above.

[4] = test system: Bcl-2-positive WEHI7.2 cells; experiment: Single cell digital imaging of intracellular Ca2+ (Fura-2); assay type: cell-based, murine
Method: as §2
Methods of Ca^2+ imaging, described in detail previously, were employed here with only minor modification. Briefly, cells adhered to poly-L-lysine-coated coverslips (35-mm coverslip dishes, MatTek Corp., Ashland, Mass.) were loaded with 1 μM Fura-2 AM for 45 min at 25° C. in extracellular buffer (ECB) (130 mM NaCl, 5 mM KCl, 1.5 mM CaCl2, 1 mM MgCl2, 25 mM Hepes, pH 7.5, 1 mg/ml BSA, and 5 mM glucose). The buffer was replaced with fresh ECB and the incubation continued for […] at 25° C. to permit de-esterification. Culture dishes were mounted on the non-heated stage of an inverted microscope (Olympus CKX41) equipped with a 20× Fluor objective. […]

[5] = test system: Bcl-2-positive WEHI7.2 cells; details: data not shown
Bcl-XL = Bcl-XL (Homo sapiens, UniProt Q07817); details: read-out: inhibitory concentration of 50% (IC50) for displacing BH3 peptides; cited from earlier work
Chain of Bcl-XL (Q07817 whole entry, species assumed): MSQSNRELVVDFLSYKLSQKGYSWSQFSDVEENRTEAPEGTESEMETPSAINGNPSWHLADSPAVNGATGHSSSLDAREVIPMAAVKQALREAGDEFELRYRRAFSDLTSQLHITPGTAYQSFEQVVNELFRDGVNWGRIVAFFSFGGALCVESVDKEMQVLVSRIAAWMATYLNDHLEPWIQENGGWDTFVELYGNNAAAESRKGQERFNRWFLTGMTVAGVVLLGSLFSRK

Bfl-1 = molecular target: T2, Bfl-1 (Homo sapiens, UniProt Q16548); details: read-out: inhibitory concentration of 50% (IC50) for displacing BH3 peptides; cited from earlier work
T2 sequence (Q16548 1-175): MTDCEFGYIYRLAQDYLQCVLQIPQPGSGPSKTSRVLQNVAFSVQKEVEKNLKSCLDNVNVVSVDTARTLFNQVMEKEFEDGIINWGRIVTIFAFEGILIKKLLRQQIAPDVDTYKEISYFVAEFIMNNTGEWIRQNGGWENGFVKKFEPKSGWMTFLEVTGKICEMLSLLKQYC

Bcl-B = molecular target: T3, Bcl-B (Homo sapiens, UniProt Q9HD36); details: read-out: inhibitory concentration of 50% (IC50) for displacing BH3 peptides; cited from earlier work
T3 sequence (Q9HD36 1-204): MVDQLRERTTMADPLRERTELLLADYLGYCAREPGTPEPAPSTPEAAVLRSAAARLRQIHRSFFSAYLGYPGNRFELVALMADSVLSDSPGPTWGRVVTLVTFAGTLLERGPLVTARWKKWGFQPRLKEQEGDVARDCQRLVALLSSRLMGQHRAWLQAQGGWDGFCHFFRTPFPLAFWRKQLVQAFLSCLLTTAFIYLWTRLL

With CN(C)CCC(CSc1ccccc1)Nc1ccc(S(=O)(=O)NC(=O)c2ccc(N3CCN(Cc4ccccc4-c4ccc(Cl)cc4)CC3)cc2)cc1[N+](=O)[O-] (centres unmarked) [ABT-737, N-[4-[4-(4′-Chloro-biphenyl-2-ylmethyl)-piperazin-1-yl]-benzoyl)-4-(3-dimethylamino-1-phenylsulfanylmethyl-propylamino)-3-nitro-benzenesulfonamide, reference compound] the “death of CLL cells” value (primary CLL cells [1]; 2 μM, 24 hr, trypan blue dye uptake, FIG. 11B) was 40% and the “induction of Ca2+ elevation” value (primary CLL cells [2]; 2 μM ABT-737, FIG. 11A) was “did not induce Ca^2+ elevation”.
In the case of C1CCC[C@H]2CCCN3CC[C@@H](CCCCCC[C@@H]4CCCN5CC[C@@H](CC1)O[C@@H]45)O[C@@H]23 [xestospongin C, reference compound], the “effect on apoptosis induction by TAT-IDPDD/AA” value (primary CLL cells [1]; CLL cells) is reported as “inhibited”, the “effect on percentage of cells displaying peptide-induced Ca2+ oscillations” value (Jurkat cells) is reported as “reduced” and the “effect on Ca2+ responses to TAT-IDP and TAT-IDPDD/AA” value (primary CLL cells [2]; CLL cells) is reported as “inhibited”.
With “NVYTEIKCNSLLPLAAIVRV (listed as Homo sapiens) [IDPDD/AA, IDP with DD/AA substitution, without TAT]” the “interaction with Bcl-2” value (Bcl-2) was “documented”, the “effect on Bcl-2-imposed inhibition of IP3-induced 45Ca2+ efflux from the ER” value [3] was “reversed” and the “disruption of Bcl-2-IP3R interaction” value (Bcl-2-IP3R interaction) was “confirmed”.
For “IDP: synthetic IP3R-derived peptide, 20 amino acid sequence within the Bcl-2-binding site on the IP3R (RKKRRQRRRGGNVYTEIKCNSLLPLDDIVRV; listed as Homo sapiens)”, the “number of Ca2+ spikes observed per cell” value ([4]; 2 μM peptide, 70 min recordings, FIG. 2) was “very infrequent” and the “induction of Ca2+ elevations” value ([4]; peptide introduced by Chariot peptide uptake reagent, data not shown) was “induced Ca^2+ elevations”.
For “RKKRRQRRRGGNVYTEIKCNSLLPLDDIVRV [TAT-IDP]”, the “cell viability following treatment” value [5] was “not lost”.
In the case of Cc1cc2c(C(C)C)c(O)c(O)c(C=O)c2c(O)c1-c1c(C)cc2c(C(C)C)c(O)c(O)c(C=O)c2c1O [Gossypol, 1,6,7,1′,6′,7′-Hexahydroxy-5,5′-diisopropyl-3,3′-dimethyl-[2,2′]binaphthalenyl-8,8′-dicarbaldehyde], the IC50 (Bcl-XL) is given as about 500 nM, the IC50 (Bfl-1) is given as about 500 nM and the IC50 (Bcl-B) is given as about 500 nM.
With pepstatin A the “effect of pretreatment on amplitude of peptide-induced Ca2+ elevations” value (Jurkat cells; TAT-IDP in Jurkat cells) was “significant enhancement” and the “effect of pretreatment on percentage of cells displaying peptide-induced calcium elevations” value (Jurkat cells; TAT-IDP in Jurkat cells) was “slight, but not significant, increase”.
With COc1ccc2c(c1)CC[C@@H]1[C@@H]2CC[C@]2(C)[C@@H](NCCCCCCN3C(=O)C=CC3=O)CC[C@@H]12 [U73122] the “effect on percentage of cells displaying peptide-induced Ca2+ oscillations” value (Jurkat cells) was “reduced”.
